Reference: patent publication US20050145571A1, “Extraction and recovery of ions from a solution” (priority 2001, published 2005)

Conditions: at 23° C

Question: With O=S(=O)([O-])C(F)(F)C(F)(F)C(F)(F)C(F)(F)C(F)(F)C(F)(F)C(F)(F)C(F)(F)F.[K+] [KPFS-8, potassium PFS-8] as the compound, how does the solubility read?
Answer: ≤ 1000 µg/mL
